From patent US4925649A, “Radioiodinated diacylglycerol analogues and methods of use” (The University of Michigan, priority 1987, dated 1990)

Test system: intracellular PK-C
Assay: [3H]PDBu binding to intact HL-60 cells
Assay type: cell-based, human
Details: 37° C., 30 minutes, FIG. 9, compared with naturally occurring diacylglycerol DiC8
Experimental: The diacylglycerol composition under investigation was stored in chloroform at -20° C. Prior to use, the diacylglycerol was dried under nitrogen and sonicated in RPMI-1640 growth media. HL-60 cells, derived from a human leukemia cell line, were cultured in RPMI-1640 growth media containing 10% horse serum. The cells were placed in fresh serum-containing growth media 24 hours prior to the experiment. Then, cells in log phase growth were placed in normal serum containing growth media with 20 mM HEPES buffer (pH 7.4) at a concentration of 5×10^6 cells/ml. The cells were incubated at 37° C. in 5% CO2 /air in the presence of [^3 H]PDBu and various concentrations of diacylglycerol.
Binding reactions were stopped after 30 minutes by filtering the cells over Whatman glass fiber GF/C filters and rinsing with cold phosphate buffered saline (pH 7.4). The filters were then dried and counted with a scintillation counter. Nonspecific binding was determined by adding 2 μM non-tritiated phorbol diester to parallel binding reactions. Specific [^3 H]PDBu binding was calculated by subtracting nonspecific [^3 H]PDBu from the total. All binding data are expressed in terms of specific binding. Specific binding typically represented 80% of the total.

## CCCCCCCC(=O)OCC(CO)OC(=O)CCc1cccc(I)c1 (racemic) [OIPG, 1-octanoyl-2-[3-(m-iodophenyl)propanoyl]-rac-glycerol]
  diacylglycerol inhibition of [3H]PDBu binding in intact HL-60 cells: capable of entering intact cells and binding to intracellular PK-C in a manner similar to a naturally occurring diacylglycerol
